The values that follow come from patent US20120122931A1, “INDOLE DERIVATIVE OR PHARMACEUTICALLY ACCEPTABLE SALT THEREOF” (KISSEI PHARMACEUTICAL CO., LTD., priority 2009, published 2012).

Several values for one entry are separate records, joined by “and”; a condition that tells them apart may be missing. Equal entries are not always repeated.

The target in one assay is T1, rat EP1 receptor (Rattus norvegicus, UniProt P70597).
T1 construct: expressed in transfected cells; host or cells: COS-1 cells, transient transfection with Lipofectamine 2000
T1 sequence (P70597 1-405): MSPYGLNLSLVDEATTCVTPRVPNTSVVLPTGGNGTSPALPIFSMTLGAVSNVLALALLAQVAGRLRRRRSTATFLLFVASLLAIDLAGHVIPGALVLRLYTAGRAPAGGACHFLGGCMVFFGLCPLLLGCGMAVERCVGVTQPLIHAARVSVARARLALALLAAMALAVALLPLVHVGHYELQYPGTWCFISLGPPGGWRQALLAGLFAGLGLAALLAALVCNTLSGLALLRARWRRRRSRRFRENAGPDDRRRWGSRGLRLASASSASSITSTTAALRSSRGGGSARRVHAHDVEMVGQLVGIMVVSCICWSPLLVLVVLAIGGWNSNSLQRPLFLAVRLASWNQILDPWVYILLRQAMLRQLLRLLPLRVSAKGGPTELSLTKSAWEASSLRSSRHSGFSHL
Kind of assay: Test for confirmation of EP1 receptor antagonism: inhibition of prostaglandin E2-induced increase in intracellular calcium concentration (Method A or Method B). The note with it: Method A (Fluo-4 NW, FlexStation); rat EP1 receptor-expressing cells; prostaglandin E2 10 nM. The assay is classed as cell-based. As for the experimental part:
(1) Preparation of Rat EP1 Expression vector
Using Rat Kidney BD Marathon-Ready cDNA (Nippon Becton Dickinson Company, Ltd.) as a template, a forward primer shown in SEQ ID NO. 1, and a reverse primer shown in SEQ ID NO. 2, a first run of PCR was carried out using KOD-Plus-Ver 2.0 (Toyobo Co., Ltd.). Further, using this amplification product as a template, a forward primer shown in SEQ ID NO. 3, and a reverse primer shown in SEQ ID NO. 4, a second run of PCR was carried out in the same manner. The amplification product obtained by the second run of PCR was incorporated into a vector (pcDNA3.1 D/V5-His-TOPO (registered trademark), Invitrogen Japan K. K.). By a conventional method, the vector containing this amplification product was introduced to E. coli (One Shot TOP10 Competent Cells, Invitrogen Corporation) to transform. This transformed E. coli was cultured in an LB agar medium for one day. After the culture, colonies were selected and cultured in an LB liquid medium containing 50 μg/mL of ampicillin. After the culture, the vector was purified using a QIAprep Spin Miniprep Kit (Qiagen K. K.). The base sequence of the insertion site of this vector (SEQ ID NO. 5) was compared with the rat EP1 base sequence (Ptger1) registered as an accession number NM_013100 in well-known database (NCBI), and as a result, they all matched except for a single base. Further, the amino acid sequence translated by the base sequence completely matched the amino acid sequence of the rat EP1 receptor registered as an NCBI accession number NP_037232. Therefore, it was confirmed that the cloned gene sequence was a base sequence of the rat EP1 receptor and the obtained amino acid sequence was that of the rat EP1 receptor. The pcDNA3.1 D/V5-His-TOPO (registered trademark) to which the nucleic acid shown in SEQ ID NO. 5 had been inserted was taken as a rat EP1-expressing vector.
(2) Preparation of Rat EP1 Receptor-Expressing Cells
COS-1 cells (Dainippon Sumitomo Pharma Co., Ltd.) were cultured until it reached confluence in an incubator at 37° C. under a 5% CO2 gas condition, using a D-MEM liquid medium (high glucose and L-glutamine contained, Invitrogen Corporation) to which a penicillin-streptomycin solution (Invitrogen Corporation, final concentration: 100 U/mL as benzylpenicillin; 100 μg/mL as streptomycin) as an antibiotic, MEM nonessential amino acids (Invitrogen Corporation, final Concentration: 0.1 mM), and fetal calf serum (Sanko Junyaku Co., Ltd., final concentration: 10%) were added.
(2-2) COS-1 Cell Subculture
The cells that had reached confluence were stripped with 0.05% trypsin/0.53 mM EDTA 4Na (Invitrogen Japan K. K.) and resuspended in the above liquid medium. The resuspended cells were diluted and cultured in the above liquid medium at a spread ratio from 1:4 to 1:8.
(2-3) Preparation of Cells for Introduction of Rat EP1-Expressing Vector
The cells that had reached confluence were stripped with 0.05% trypsin/0.53 mM EDTA.4Na, and resuspended in a D-MEM liquid medium (high glucose and L-glutamine contained, Invitrogen Corporation) to which an MEM nonessential amino acid (final concentration: 0.1 mM) and fetal calf serum (final concentration: 10%) were added. In each well of a Poly D-lysine-coated 96-well microplate (BD BioCoat (registered trademark), Nippon Becton Dickinson Company, Ltd.), this resuspended cell suspension culture was prepared to be 5×10^4 cells/well in 100 μL of the liquid medium, and seeded thereon. After seeding, the cells were cultured in an incubator at 37° C. under a 5% CO2 gas condition. At a point when the cells for introduction of a rat EP1-expressing vector were adhered (about 2 hours after seeding), introduction of the rat EP1-expressing vector was carried out in the following order.
(2-4) Introduction of Rat EP1-Expressing Vector
For introduction of the rat EP1-expressing vector, Lipofectamine 2000 (Invitrogen Japan K. K.) was used. […]
(In general: Calcium flux is commonly read through the fluorescence of an indicator in the cells.)
On to `COc1ccc2c(Cc3cccc(C(=O)O)n3)c(-c3cccc(Cl)c3)[nH]c2c1` [Example 11-21, 6-[2-(3-chlorophenyl)-6-methoxy-1H-indol-3-ylmethyl]pyridine-2-carboxylic acid], for which the concentration for half-maximal inhibition (IC50) was 0.023 µM. Consider `CCOc1ccc2c(Cc3cccc(C(=O)O)n3)c(-c3ccccc3)[nH]c2c1` [Example 4-34, 6-(6-ethoxy-2-phenyl-1H-indol-3-ylmethyl)pyridine-2-carboxylic acid], for which the IC50 was determined as 0.044 µM. The same measure, in the same setting: the figure for `COc1ccc2c(Cc3cccc(C(=O)O)c3)c(-c3ccsc3)[nH]c2c1` [Example 4-12, 3-(6-methoxy-2-thiophen-3-yl-1H-indol-3-ylmethyl)benzoic acid] is 0.04 µM.

Staying with this assay, now noted: Method B (Calcium kit II Fluo 4, FDSS 7000); rat EP1 receptor-expressing cells; prostaglandin E2 10 nM.
Turning to `COc1ccc2c(Cc3cccc(C(=O)O)n3)c(-c3cncc(F)c3)[nH]c2c1` [Example 16-11, 6-[2-(5-fluoropyridin-3-yl)-6-methoxy-1H-indol-3-ylmethyl]pyridine-2-carboxylic acid], the concentration for half-maximal inhibition (IC50) worked out at 0.027 µM.

`CCOc1ccc2c(Cc3cccc(C(=O)O)n3)c(-c3ccc(F)cc3)[nH]c2c1` [Example 16-60, 6-[6-ethoxy-2-(4-fluorophenyl)-1H-indol-3-ylmethyl]pyridine-2-carboxylic acid]: the IC50 came to 0.032 µM. Turning to `O=C(O)c1cccc(Cc2c(-c3cccnc3)[nH]c3cc(C4CC4)ccc23)n1` [Example 16-67, 6-(6-cyclopropyl-2-pyridine-3-yl-1H-indol-3-ylmethyl)pyridine-2-carboxylic acid], the half-maximal inhibitory concentration (IC50) was determined as 0.022 µM.

As for `Cc1ccc2c(Cc3cccc(C(=O)O)n3)c(-c3ccc(F)cc3)[nH]c2c1` [Example 16-48, 6-[2-(4-fluorophenyl)-6-methyl-1H-indol-3-ylmethyl]pyridine-2-carboxylic acid], the IC50 was 0.027 µM. On the same count and under the same terms, the figure for `COc1cc2[nH]c(C(C)(C)C)c(Cc3cccc(C(=O)O)n3)c2cc1C` [Example 16-98, 6-(2-tert-butyl-6-methoxy-5-methyl-1H-indol-3-ylmethyl)pyridine-2-carboxylic acid] is 0.047 µM; for `COc1cc2[nH]c(-c3ccsc3)c(Cc3cccc(C(=O)O)n3)c2cc1F` [Example 16-28, 6-(5-fluoro-6-methoxy-2-thiophen-3-yl-1H-indol-3-ylmethyl)pyridine-2-carboxylic acid] it is 0.03 µM; for `COc1cc2c(Cc3cccc(C(=O)O)n3)c(-c3ccoc3)[nH]c2cc1Cl` [Example 16-105, 6-(6-chloro-2-furan-3-yl-5-methoxy-1H-indol-3-ylmethyl)pyridine-2-carboxylic acid] it is 0.026 µM. As for `O=C(O)c1cccc(Cc2c(-c3ccccc3)[nH]c3cc(C4CC4)ccc23)n1` [Example 16-8, 6-(6-cyclopropyl-2-phenyl-1H-indol-3-ylmethyl)pyridine-2-carboxylic acid], the half-maximal inhibitory concentration (IC50) turned out to be 0.032 µM. Same read-out and setting: the figure for `COc1cc2[nH]c(-c3ccccc3)c(Cc3cccc(C(=O)O)n3)c2cc1F` [Example 16-16, 6-(5-fluoro-6-methoxy-2-phenyl-1H-indol-3-ylmethyl)pyridine-2-carboxylic acid] is 0.025 µM; for `O=C(O)c1cccc(Cc2c(-c3cccnc3)[nH]c3cc(C4CC4)c(F)cc23)n1` [Example 16-76, 6-(6-cyclopropyl-5-fluoro-2-pyridine-3-yl-1H-indol-3-ylmethyl)pyridine-2-carboxylic acid] it is 0.02 µM. Turning to `COc1ccc2c(Cc3cccc(C(=O)O)n3)c(-c3cccnc3)[nH]c2c1` [Example 11-11, 6-(6-methoxy-2-pyridin-3-yl-1H-indol-3-ylmethyl)pyridine-2-carboxylic acid], the 50% inhibitory concentration (IC50) worked out at 0.032 µM.

Consider `COc1cc2[nH]c(-c3ccccc3)c(Cc3cccc(C(=O)O)n3)c2cc1Cl` [Example 16-13, 6-(5-chloro-6-methoxy-2-phenyl-1H-indol-3-ylmethyl)pyridine-2-carboxylic acid], for which the half-inhibitory concentration (IC50) amounted to 0.036 µM. As to `COc1cc2c(Cc3cccc(C(=O)O)n3)c(-c3ccsc3)[nH]c2cc1C` [Example 16-108, 6-(5-methoxy-6-methyl-2-thiophen-3-yl-1H-indol-3-ylmethyl)pyridine-2-carboxylic acid], the IC50 came out at 0.019 µM. The same measure, in the same setting: the figure for `CCOc1cc2[nH]c(-c3ccsc3)c(Cc3cccc(C(=O)O)n3)c2cc1F` [Example 16-79, 6-(6-ethoxy-5-fluoro-2-thiophen-3-yl-1H-indol-3-ylmethyl)pyridine-2-carboxylic acid] is 0.022 µM. Same read-out and setting: the figure for `Cc1cc2c(Cc3cccc(C(=O)O)n3)c(-c3ccccc3)[nH]c2cc1C1CC1` [Example 16-100, 6-(6-cyclopropyl-5-methyl-2-phenyl-1H-indol-3-ylmethyl)pyridine-2-carboxylic acid] is 0.044 µM and 0.026 µM; for `O=C(O)c1cccc(Cc2c(-c3ccsc3)[nH]c3cc(C4CC4)c(F)cc23)n1` [Example 16-75, 6-(6-cyclopropyl-5-fluoro-2-thiophen-3-yl-1H-indol-3-ylmethyl)pyridine-2-carboxylic acid] it is 0.016 µM. Same read-out and setting: the figure for `O=C(O)c1cccc(Cc2c(-c3ccccc3)[nH]c3cc(C4CC4)c(F)cc23)n1` [Example 16-68, 6-(6-cyclopropyl-5-fluoro-2-phenyl-1H-indol-3-ylmethyl)pyridine-2-carboxylic acid] is 0.034 µM; for `COc1cc2c(Cc3cccc(C(=O)O)n3)c(-c3ccccc3)[nH]c2cc1Cl` [Example 16-23, 6-(6-chloro-5-methoxy-2-phenyl-1H-indol-3-ylmethyl)pyridine-2-carboxylic acid] it is 0.034 µM; for `Cc1cc2[nH]c(-c3ccc(F)cc3)c(Cc3cccc(C(=O)O)n3)c2cc1F` [Example 16-54, 6-[5-fluoro-2-(4-fluorophenyl)-6-methyl-1H-indol-3-ylmethyl]pyridine-2-carboxylic acid] it is 0.047 µM.

On to `COc1cc2[nH]c(C(C)(C)C)c(Cc3cccc(C(=O)O)n3)c2cc1Cl` [Example 16-89, 6-(2-tert-butyl-5-chloro-6-methoxy-1H-indol-3-ylmethyl)pyridine-2-carboxylic acid], for which the IC50 is 0.022 µM. Take `CCOc1cc2[nH]c(-c3ccccc3)c(Cc3cccc(C(=O)O)n3)c2cc1C` [Example 16-84, 6-(6-ethoxy-5-methyl-2-phenyl-1H-indol-3-ylmethyl)pyridine-2-carboxylic acid]: the IC50 came out at 0.017 µM. Still for that read-out and setting: the figure for `CCC(C)c1[nH]c2cc(OC)c(Cl)cc2c1Cc1cccc(C(=O)O)n1` (centres unmarked) [Example 16-107, 6-(2-sec-butyl-5-chloro-6-methoxy-1H-indol-3-ylmethyl)pyridine-2-carboxylic acid] is 0.04 µM. Still for that read-out and setting: the figure for `O=C(O)c1cccc(Cc2c(-c3ccsc3)[nH]c3cc(Cl)c(F)cc23)n1` [Example 16-52, 6-(6-chloro-5-fluoro-2-thiophen-3-yl-1H-indol-3-ylmethyl)pyridine-2-carboxylic acid] is 0.043 µM.

By IC50 is commonly meant the concentration needed to halve the response being measured.
